Source: patent US20060193881A1, “Method and compositions for attracting mosquitoes employing (R)-(-) isomers of 1-alken-3-ols” (Bedoukian Research, Inc., priority 2005, published 2006)

Tests used:
Type in all cases: in vivo
mosquitoes [1] = assay: John W. Hock fan-driven CO2 trap field test, small amount (R) vs large amount racemic, Danbury Conn.; conditions: 14 days; for average mosquitoes caught: CO2 150 ml/min
Description: A test similar to example 5 was conducted in Danbury Conn. using fan driven-traps manufactured by John W. Hock Company in Gainesville Fla. using 150 ml/min CO2. To compare the attractiveness of a large amount of racemic 1-octen-3-ol to a small amount of (R)-(-)-1-octen-3-ol, one lure contained 50 mg of (R)-(-)-1-octen-3-ol diluted in 1.5 ml diethyl phthalate, releasing 1.5 mg/day or less was evaluated against a lure containing 1660 mg of racemic 1-octen-3-ol (830 mg of each enantiomer) diluted in 1.5 ml of diethyl phthalate, and releasing approximately 40 mg of 1-octen-3-ol/day. After rotation between the two traps over 14 days, the lure with the 1660 mg of racemic octenol caught an average of 9.4 mosquitoes, while the lure containing 50 mg of (R)-(-)-1-octen-3-ol caught an average of 11.8 mosquitoes, representing an increase of 26%.

mosquitoes [2] = assay: Mosquito Magnet Pro trap field test of 1-decen-3-ol enantiomers, Florida; conditions: 1 gram in fibrous lure; for total mosquitoes caught: lures rotated between traps over nine days
Description: The tests were conducted in Florida using Mosquito Magnet Pro mosquito traps manufactured by American Biophysics, rotating the lures between traps over a period of nine days, using 1 gram of each test material in a fibrous lure of the type normally used in the traps.

mosquitoes [3] = assay: Mosquito Magnet Liberty trap field test, effect of (S) isomer on (R) isomer, Danbury Conn.; conditions: 14 days
Description: A test to compare the effect of the presence of (S)-(+)-1-octen-3-ol on the efficacy of (R)-(-)-1-octen-3-ol was conducted in Danbury Conn. One lure contained 200 mg of (R)-(-)-1-octen-3-ol diluted in diethyl phthalate to slow release to under 1.7 mg/day. The other lure was identical except that it also contained 200 mg of (S)-(+)-1-octen-3-ol (equivalent to 400 mg of racemic 1-octen-3-ol). The lures were rotated over 14 days between two American Biophysics Mosquito Magnet Liberty traps. The lure containing the 200 mg of (R)-(-)-1-octen-3-ol plus 200 mg (S)-(+)-1-octen-3-ol caught an average of 5.6 mosquitoes/day, while the lure containing 200 mg of (R)-(-)-1-octen-3-ol caught an average of 8.1 mosquitoes daily, representing an increase in efficacy of 45%.

mosquitoes [4] = assay: CO2 fan trap (John W. Hock model 1012) field test with wax lures, Danbury, Conn.; conditions: wax lure, approx. 0.17 mg/hour release, CO2 approx. 140 ml/minute, average of four three-day cycles
Description: The following tests were conducted in Connecticut in September 2004. Mosquito traps model 1012 manufactured by John W. Hock Company in Gainesville, Fla. were used in these experiments. The traps use a stream of CO2 directed in the vicinity of a collection bag, with a fan used to blow mosquitoes into the bag. The light supplied with the trap was turned off. The traps were spaced 65-70 feet apart at the edge of a wetland in Danbury, Conn., at least 25 feet from any buildings. The (R) and (S)-1-octen-3-ol was incorporated into a wax lure of the type manufactured by BioSensory, Inc. and placed near a stream of CO2 which was being released at a rate of approximately 140 ml/minute. The traps were operated from approximately 4:00PM until 9:00AM the next day. Daytime temperatures were 70-75° F. during the trials. Average weight loss from the wax lures during the test was approximately 4 mg/day, or 0.17 mg/hour. Three traps were used, with either (R)-1-Octen-3-ol, (S)-1-Octen-3-ol, or no treatment, rotated among the traps over a three-day cycle. Four complete cycles were performed and the results for each treatment were averaged.
The traps with no attractant were considered as the baseline catch of mosquitoes and the results of the catches with the isomers were compared to this baseline value.

mosquitoes [5] = assay: Mosquito Magnet Liberty trap field test with or without ammonium bicarbonate lure, Redding, Conn.; conditions: lure with 800 mg (R)-(-)-1-octen-3-ol in waxy carrier; rotated daily for 15 days
Description: A test similar to Example 3 was conducted in Redding, Conn., employing Mosquito Magnet Liberty traps rotated daily for 15 days. One trap was provided with a lure containing 470 mg (R)-(-)-1-octen-3-ol isomer in a waxy carrier plus 5 grams of ammonium bicarbonate provided by a lure containing ammonium bicarbonate in a controlled release polymer matrix, provided by […]-BCS Limited ([…]-BCS Limited […] Road, Treforest Industrial Estate, Pontypridd, CF37 5SU UK) and the second trap was provided with a lure containing 800 mg (R)-(-)-1-octen-3-ol isomer in the waxy carrier. The trap with the 800 mg (R)-(-)-1-octen-3-ol isomer attracted an average of 3.8 mosquitoes daily whereas the traps with only 470 mg (R)-(-)-1-octen-3-ol isomer plus the ammonium carbonate attracted average of 6.9 mosquitoes daily, an average increase of about 82%.

mosquitoes [6] = assay: Mosquito Magnet Liberty trap field test with porous frit, Danbury, Conn.; conditions: 1 gram on porous frit, 20-30 mg/day release
Description: Tests were conducted with the Mosquito Magnet Liberty model traps manufactured by American Biophysics Corp. Traps were spaced 65-70 feet apart at the edge of a wetland in Danbury, Conn., at least 25 feet from any buildings. 1 gram of test chemical was added to a clean porous frit of the type normally used in the trap, releasing approximately 20-30 mg/day. In the first test, racemic 1-octen-3-ol and (R)-(-)-1-octen-3-ol were rotated among four traps over 8 days. In the second test, (S)-(+)-1-octen-3-ol and no treatment were rotated between three traps over nine days.

mosquitoes [7] = assay: Mosquito Magnet Pro trap field test with or without ammonia source, Gainesville, Fla.; conditions: lure with 230 mg (R)-(-)-1-octen-3-ol; traps producing carbon dioxide and heat; twenty-day cycle
Description: The test was conducted in Gainesville, Fla. using Mosquito Magnet Pro model mosquito traps manufactured by American Biophysics Corp. that produced carbon dioxide and heat. The traps were provided with either lures having 230 mg (R)-(-)-1-octen-3-ol isomer or lures with 230 mg (R)-(-)-1-octen-3-ol isomer in combination with a source of ammonia provided by a lure containing ammonium bicarbonate in a controlled release polymer matrix, Bactrocera (Dacus) olae, Product code BF L080, provided by AgriSense-BCS Limited, Taffs Mead Road, Treforest Industrial Estate, Pontypridd, CF37 5SU, UK. The traps were rotated between the locations for a twenty-day cycle.

Compound `C=CC(O)CCCCC` (racemic) [racemic octenol, 1-octen-3-ol, reference compound] has an average mosquitoes caught (mosquitoes [1]; lure with 1660 mg racemic in 1.5 ml diethyl phthalate, approx. 40 mg/day release) of 9.4 mosquitoes.
In the case of `C=C[C@H](O)CCCCCCC` [(R)-(-)-1-decen-3-ol], the total mosquitoes caught (mosquitoes [2]) is reported as 89 mosquitoes and the “improvement in catch vs (S)-(+)-1-decen-3-ol” value (mosquitoes [2]; nine days) is reported as 89%.
For `C=C[C@H](O)CCCCC` [(R)-(-)-1-octen-3-ol], the “increase in efficacy vs lure also containing 200 mg (S)-(+)-1-octen-3-ol” value (mosquitoes [3]; 200 mg (R) isomer) was 45%, the average mosquitoes caught (mosquitoes [3]; lure with 200 mg (R)-(-)-1-octen-3-ol in diethyl phthalate, release under 1.7 mg/day) was 8.1 mosquitoes daily and the “more mosquitoes captured than the baseline (traps with no attractant)” value (mosquitoes [4]) was 88%. The “average mosquitoes attracted daily” value (mosquitoes [5]) was 3.8 mosquitoes daily, the “increase in catch vs lure with 1660 mg racemic octenol” value (mosquitoes [1]; 50 mg (R) isomer) was 26% and the average mosquitoes caught (mosquitoes [1]; lure with 50 mg (R) in 1.5 ml diethyl phthalate, 1.5 mg/day or less release) was 11.8 mosquitoes. The “more mosquitoes caught than trap with 50:50 racemic mixture of 1-octen-3-ol” value (mosquitoes [6]; first test, four traps over 8 days) was 18% and the “average number of mosquitoes attracted daily” value (mosquitoes [7]) was 14 mosquitoes.
`C=C[C@@H](O)CCCCCCC` [(S)-(+)-1-decen-3-ol, reference compound] gave a total mosquitoes caught (mosquitoes [2]) of 47 mosquitoes.
For `C=C[C@@H](O)CCCCC` [(S)-(+)-1-octen-3-ol, reference compound], the “more mosquitoes captured than the baseline (traps with no attractant)” value (mosquitoes [4]) was 35% and the “fewer mosquitoes caught than the trap with no attractant” value (mosquitoes [6]; second test, three traps over nine days) was 37%.
